The target in assay [1] is T1, Serine hydrolase RBBP9 (Homo sapiens, UniProt O75884). Description: Displacement of fluorophosphate-rhodamine from RBBP9 transfected in human HEK293T cells proteomes at 20 uM after 30 mins by SDS-PAGE gel fluorescence assay. Format: cell-based. The following applies: HEK-293T.
Target sequence in this assay (O75884 whole entry, looked up): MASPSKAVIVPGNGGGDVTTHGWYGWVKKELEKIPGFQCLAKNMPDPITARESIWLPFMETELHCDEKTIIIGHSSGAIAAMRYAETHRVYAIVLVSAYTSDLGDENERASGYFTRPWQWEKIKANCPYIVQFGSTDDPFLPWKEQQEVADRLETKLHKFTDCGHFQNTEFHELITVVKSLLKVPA
For assay [2], the target named is T1, Serine hydrolase RBBP9. The experiment in a line: Displacement of fluorophosphate-rhodamine from RBBP9 transfected in human HEK293T cells proteomes after 30 mins by SDS-PAGE gel fluorescence assay. The format is cell-based, HEK-293T.
Target sequence in this assay (O75884 whole entry): as the sequence (O75884 whole entry, looked up) above
In assay [3] the target is T1, Serine hydrolase RBBP9. Description: Displacement of fluorophosphate-rhodamine from RBBP9 transfected in human HEK293T cells proteomes at 7.9 uM after 30 mins by SDS-PAGE gel fluorescence assay. The following applies: HEK-293T. Format: cell-based.
Target sequence in this assay (O75884 whole entry, looked up): as above
For assay [4], the target named is T2, Glutathione S-transferase omega-1 (Homo sapiens) (UniProt P78417).
T2 sequence (whole entry): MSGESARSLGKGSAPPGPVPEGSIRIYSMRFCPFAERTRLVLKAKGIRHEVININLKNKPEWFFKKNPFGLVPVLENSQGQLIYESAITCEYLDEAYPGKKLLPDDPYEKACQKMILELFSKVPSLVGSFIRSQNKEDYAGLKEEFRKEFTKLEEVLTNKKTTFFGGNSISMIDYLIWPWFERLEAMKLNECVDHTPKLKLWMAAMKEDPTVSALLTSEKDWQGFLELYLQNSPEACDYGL
The experiment in a line: Displacement of phenylsulphonate-rhodamine from GSTO1 in human MDA-MB-231 cells proteomes at 20 uM after 30 mins by SDS-PAGE gel fluorescence assay. The format is cell-based.

Assay [5] has as its target T1, Serine hydrolase RBBP9. The experiment in a line: Displacement of fluorophosphate-rhodamine from recombinant RBBP9 transfected in mouse brain membrane proteomes after 30 mins by SDS-PAGE gel fluorescence assay. Format: cell membranes.
Target sequence in this assay (O75884 whole entry): as the sequence (O75884 whole entry, looked up) above
Assay [6] addresses T1, Serine hydrolase RBBP9. The experiment in a line: Displacement of phenylsulphonate-rhodamine from RBBP9 transfected in human MDA-MB-231 cells proteomes after 30 mins by SDS-PAGE gel fluorescence assay. Format: cell-based.
Target sequence in this assay (O75884 whole entry, looked up): as the sequence (O75884 whole entry, looked up) above
The target of assay [7] is T1, Serine hydrolase RBBP9. Description: Displacement of fluorophosphate-rhodamine from recombinant RBBP9 transfected in mouse brain membrane proteomes at 200 uM after 30 mins by SDS-PAGE gel fluorescence assay. Format: cell membranes.
Target sequence in this assay (O75884 whole entry, looked up): as the sequence (O75884 whole entry, looked up) above

Activity calls are given as the source filed them. No cut-off for these calls is given here.

What is called inhibition is how much of the control response was suppressed. The IC50 is the concentration at which inhibition is half-maximal.

Turning to `C/C(=N\OC(=O)c1ccc(I)cc1)c1nccs1`, the inhibition at Serine hydrolase RBBP9 [1] was found to be 66%.

At Serine hydrolase RBBP9 [1], `CC(=O)O/N=C(\C)c1nccs1` had an inhibition of 0%.

Regarding `CC1=CC(=NOC(=O)/C=C/c2ccccc2)C=C(C)C1=O`, the figures for the inhibition on Serine hydrolase RBBP9 [1] and on Serine hydrolase RBBP9 [3] were 78% and 79%, respectively. Besides, the IC50 at Serine hydrolase RBBP9 [2] is 1200 nM. In assay [4], the inhibition result was “Active”.

Take `C/C(=N\OC(=O)c1cc(F)ccc1F)c1nccs1`: on Serine hydrolase RBBP9 [1], the inhibition was determined as 66%.

In the case of `C/C(=N\OC(=O)c1cccc(Cl)c1)c1nccs1`, the inhibition at Serine hydrolase RBBP9 [1] worked out at 63%.

Consider `C/C(=N\OC(=O)/C=C/c1ccccc1)c1nccs1`, for which, on Serine hydrolase RBBP9 [1], the inhibition is 42%.

Turning to `COc1ccc(C(=O)ON=C2C=C(C)C(=O)C(C)=C2)cc1`, the inhibition on Serine hydrolase RBBP9 [1] turned out to be 93%. Moreover, the IC50 on Serine hydrolase RBBP9 [2] and at Serine hydrolase RBBP9 [5] was 1500 nM in each case.

Compound `C/C(=N\OC(=O)c1c(-c2c(F)cccc2Cl)noc1C)c1nccs1` came in with an inhibition on Serine hydrolase RBBP9 [1] of 14%.

`C/C(=N\OC(=O)c1ccc(-c2ccccc2)cc1)c1nccs1` registered an inhibition at Serine hydrolase RBBP9 [1] of 4%.

Consider `C/C(=N\OC(=O)c1ccccc1)c1nccs1`, for which, at Serine hydrolase RBBP9 [1], the inhibition turned out to be 62%.

As for `C/C(=N\OC(=O)c1ccc(F)cc1)c1nccs1`, at Serine hydrolase RBBP9 [1], the inhibition turned out to be 76%. Besides, the IC50 on Serine hydrolase RBBP9 [2] came out at 5700 nM.

In turn, `COc1ccc(C(=O)O/N=C2/C=C(C)C(=O)C=C2C)cc1` gave an inhibition at Serine hydrolase RBBP9 [1] of 76%.

Take `CC[C@H]1CN2CCc3cc(OC)c(OC)cc3[C@@H]2C[C@@H]1CC1NCCc2cc(OC)c(OC)cc21` (single isomer, unassigned) [EMETINE]: the IC50 on Serine hydrolase RBBP9 [2] (hek-293t) came out at 7800 nM.

Take `C/C(=N\OC(=O)c1ccc(Cl)cc1)c1nccs1`: the results for the inhibition on Serine hydrolase RBBP9 [1] and on Serine hydrolase RBBP9 [3] were 78% and 80%, respectively. The same compound returned an IC50 on Serine hydrolase RBBP9 [2] of 1900 nM. Also, the inhibition entry at Serine hydrolase RBBP9 [6] is “inactive”. For the same compound, the outcome on Serine hydrolase RBBP9 [7] was inactive.

Regarding `C/C(=N\OC(=O)c1ccc([N+](=O)[O-])cc1)c1nccs1`, the inhibition on Serine hydrolase RBBP9 [1] was determined as 15%.

As to `COc1ccc(C(=O)O/N=C(\C)c2nccs2)cc1`, the inhibition on Serine hydrolase RBBP9 [1] is 60%; at Serine hydrolase RBBP9 [3], 39%. On Serine hydrolase RBBP9 [2], this compound showed an IC50 of 9200 nM. Besides, on Serine hydrolase RBBP9 [6], the inhibition entry was “inactive”.

Take `COc1ccc(C(=O)ON=C2C(C)=CC(=O)C=C2C)cc1`: the inhibition on Serine hydrolase RBBP9 [1] stood at 48%.

`C#CCCC(=O)O/N=C(\C)c1nccs1` returned an inhibition at Serine hydrolase RBBP9 [1] of 42%.

With `C/C(=N\OC(=O)c1c(-c2ccccc2Cl)noc1C)c1nccs1`, on Serine hydrolase RBBP9 [1], the inhibition was 17%.

Take `C/C(=N\OC(=O)N1CCCCC1)c1nccs1`: the inhibition on Serine hydrolase RBBP9 [1] is 0%.

For `C/C(=N\OC(=O)c1ccccc1F)c1nccs1`, the inhibition at Serine hydrolase RBBP9 [1] amounted to 64%.

On to `C/C(=N\OC(=O)C1CCCCC1)c1nccs1`, for which, on Serine hydrolase RBBP9 [1], the inhibition came out at 91%. Further, the IC50 at Serine hydrolase RBBP9 [2] was found to be 640 nM.

`C/C(=N\OC(=O)c1cccc(C(F)(F)F)c1)c1nccs1` gave an inhibition at Serine hydrolase RBBP9 [1] of 46%.

For the compound `C/C(=N\OC(=O)c1c(-c2c(Cl)cccc2Cl)noc1C)c1nccs1`, the inhibition on Serine hydrolase RBBP9 [1] turned out to be 8%.

Values taken from ChEMBL document CHEMBL1156321, “Oxime esters as selective, covalent inhibitors of the serine hydrolase retinoblastoma-binding protein 9 (RBBP9)” (Bioorg Med Chem Lett, 2010).
